Measurements taken from patent publication US9546153B2, “Bicyclic heterocycle substituted pyridyl compounds useful as kinase modulators” (BRISTOL-MYERS SQUIBB COMPANY, priority 2012, dated 2017).

The molecules below were run against IRAK4 (Homo sapiens (Human), UniProt Q9NWZ3) (assay: IRAK4 Inhibition Assay). Conditions: ATP 500 μM; IRAK4 0.6 nM; 60 min at room temperature.
Format: biochemical
Description: The assays were performed in U-bottom 384-well plates. […] The reaction was initiated by the combination of IRAK4 with substrates and test compounds. The reaction was incubated at room temperature for 60 min. and terminated by adding 45 μL of 35 mM EDTA to each sample. The reaction mixture was analyzed on the Caliper LABCHIP® 3000 (Caliper, Hopkinton, Mass.) by electrophoretic separation of the fluorescent substrate and phosphorylated product.

IRAK4, sequence (Q9NWZ3 whole entry, species assumed): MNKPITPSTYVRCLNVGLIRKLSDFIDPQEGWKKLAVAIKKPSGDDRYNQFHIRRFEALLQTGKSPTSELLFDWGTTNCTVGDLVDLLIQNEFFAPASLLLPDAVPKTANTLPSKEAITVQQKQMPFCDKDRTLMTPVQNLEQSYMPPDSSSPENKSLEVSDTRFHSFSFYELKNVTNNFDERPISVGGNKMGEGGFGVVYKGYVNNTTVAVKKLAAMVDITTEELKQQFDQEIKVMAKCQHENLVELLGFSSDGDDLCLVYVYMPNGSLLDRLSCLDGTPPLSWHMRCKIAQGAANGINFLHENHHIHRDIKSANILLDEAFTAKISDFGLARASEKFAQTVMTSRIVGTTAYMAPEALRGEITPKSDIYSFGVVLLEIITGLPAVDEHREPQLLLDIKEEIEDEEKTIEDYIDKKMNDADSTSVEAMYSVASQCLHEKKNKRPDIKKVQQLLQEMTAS

How did the IC50 turn out when `CC(C)(O)[C@H](F)CNC(=O)c1cnc(Nc2ccc3ncsc3c2)cc1NC1CCC(O)C1` (some centres unmarked) [Example 37] was run?
The IC50 was 3.9 nM.

How did the IC50 turn out when `CC(C)(O)[C@H](F)CNC(=O)c1cnc(Nc2ccc3ncsc3c2)cc1NC1CCC(O)C1` (some centres unmarked) [Example 38] was run?
The IC50 was 5.2 nM.

Which IC50 does the source give for `CC(CO)Nc1cc(Nc2ccc3ncsc3c2)ncc1C(=O)NC[C@@H](F)C(C)(C)O` (some centres unmarked) [Example 39] here?
Its IC50 is 5.3 nM.

Which IC50 does the source give for `CC(C)Nc1cc(Nc2ccc3nsnc3c2)ncc1C(=O)NC[C@@H](F)C(C)(C)O` [Example 41] here?
The IC50 was 3.5 nM.

`CC(C)(O)[C@H](F)CNC(=O)c1cnc(Nc2ccc3ncsc3c2)cc1NC1CC1` [Example 42] was tested. Which IC50 did it give?
Its IC50 is 2.7 nM.

For `CC(C)Nc1cc(Nc2ccc3nonc3c2)ncc1C(=O)NC[C@@H](F)C(C)(C)O` [Example 45], which IC50 is on record?
The IC50 was 7.5 nM.

Which IC50 does the source give for `CC(C)Nc1cc(Nc2ccc3ncncc3c2)ncc1C(=O)NC[C@@H](F)C(C)(C)O` [Example 48] here?
The IC50 was 3.1 nM.

For `CC(C)(O)[C@H](F)CNC(=O)c1cnc(Nc2ccc3ncsc3c2)cc1N[C@@H](c1ccccc1)[C@H](O)CO` [Example 49], which IC50 is on record?
The IC50 was 3.4 nM.

Which IC50 does the source give for `CC1(O)CCC(Nc2cc(Nc3ccc4ncsc4c3)ncc2C(=O)NC[C@@H](F)C(C)(C)O)C1` (some centres unmarked) [Example 50] here?
The IC50 was 6.8 nM.

Which IC50 does the source give for `CC(C)(O)[C@H](F)CNC(=O)c1cnc(Nc2ccc3ncsc3c2)cc1Nc1ccc(OC(F)F)cc1` [Example 51] here?
Its IC50 is 3.7 nM.

Which IC50 does the source give for `CC(C)(O)[C@H](F)CNC(=O)c1cnc(Nc2ccc3ncsc3c2)cc1NC1CCOCC1` [Example 52] here?
Its IC50 is 2.7 nM.

`CC(C)(O)[C@H](F)CNC(=O)c1cnc(Nc2ccc3ncsc3c2)cc1NC1CCCOC1` (some centres unmarked) [Example 53] was tested. Which IC50 did it give?
Its IC50 is 5.4 nM.

For `CC(C)(O)[C@H](F)CNC(=O)c1cnc(Nc2ccc3ncsc3c2)cc1NC1CCCOC1` (some centres unmarked) [Example 54], which IC50 is on record?
The IC50 was 3.6 nM.

How did the IC50 turn out when `CC(C)Nc1cc(Nc2ccc3nccnc3c2)ncc1C(=O)NC[C@@H](F)C(C)(C)O` [Example 55] was run?
The IC50 was 5.9 nM.

Which IC50 does the source give for `CC(C)(O)[C@H](F)CNC(=O)c1cnc(Nc2ccc3ncsc3c2)cc1Nc1cccc(CO)c1` [Example 57] here?
Its IC50 is 5.2 nM.

For `CC(C)(O)[C@H](F)CNC(=O)c1cnc(Nc2ccc3ncccc3c2)cc1NC1CC1` [Example 58], which IC50 is on record?
The IC50 was 7 nM.

Which IC50 does the source give for `CC(C)(O)[C@H](F)CNC(=O)c1cnc(Nc2ccc3ncsc3c2)cc1Nc1cccc(CCO)c1` [Example 59] here?
Its IC50 is 6 nM.

`CC(C)(O)[C@H](F)CNC(=O)c1cnc(Nc2ccc3ncsc3c2)cc1N[C@H]1CC[C@H](N)CC1` [Example 61] was tested. Which IC50 did it give?
Its IC50 is 7 nM.

Which IC50 does the source give for `CC(C)(O)[C@H](F)CNC(=O)c1cnc(Nc2ccc3ncsc3c2)cc1N[C@H](CO)c1ccccc1` [Example 63] here?
The IC50 was 8.6 nM.

How did the IC50 turn out when `CC(C)(O)C1CC(Nc2cc(Nc3ccc4ncsc4c3)ncc2C(=O)NC[C@@H](F)C(C)(C)O)C1` (some centres unmarked) [Example 64] was run?
Its IC50 is 5.2 nM.

For `CC(C)(O)[C@H](F)CNC(=O)c1cnc(Nc2ccc3ncsc3c2)cc1N[C@@H](c1cc(F)cc(F)c1)[C@H](O)CO` [Example 65], which IC50 is on record?
Its IC50 is 3.9 nM.

How did the IC50 turn out when `CC(C)(O)[C@H](F)CNC(=O)c1cnc(Nc2ccc3ncsc3c2)cc1N[C@H]1CCC(CCO)C1` (some centres unmarked) [Example 66] was run?
The IC50 was 2.3 nM.

`CC(C)(O)[C@H](F)CNC(=O)c1cnc(Nc2ccc3ncsc3c2)cc1N[C@H]1CCC(CCO)C1` (some centres unmarked) [Example 67] was tested. Which IC50 did it give?
The IC50 was 6.8 nM.

For `CC(C)(O)[C@H](F)CNC(=O)c1cnc(Nc2ccc3ncsc3c2)cc1N[C@H]1CCC(CCO)C1` (some centres unmarked) [Example 68], which IC50 is on record?
Its IC50 is 4.7 nM.

With `CC(C)(O)[C@H](F)CNC(=O)c1cnc(Nc2ccc3ncsc3c2)cc1NC1CC(CO)C1` (some centres unmarked) [Example 69] as the molecule, how does the IC50 read?
Its IC50 is 3.4 nM.

For `CCOC(=O)C1CC(Nc2cc(Nc3ccc4ncsc4c3)ncc2C(=O)NC[C@@H](F)C(C)(C)O)C1` (some centres unmarked) [Example 70], which IC50 is on record?
Its IC50 is 8.7 nM.

For `CC(C)(O)[C@H](F)CNC(=O)c1cnc(Nc2ccc3nccnc3c2)cc1NC1CCCOC1` (some centres unmarked) [Example 71], which IC50 is on record?
The IC50 was 13.8 nM.

For `CC(C)(O)[C@H](F)CNC(=O)c1cnc(Nc2ccc3ncncc3c2)cc1NC1CCC1` [Example 73], which IC50 is on record?
The IC50 was 2.7 nM.

The molecules below were run on TLR2 induced IL-6 in peripheral blood mononuclear cells (PBMCs) (assay: PBMC TLR2 Induced IL-6 Assay). Conditions: Homo sapiens, PBMC, 5 h, human PBMCs, 10 μg/ml lipoteichoic acid for 5 hours, IL-6 by ELISA; value without asterisk; read-out: Cell IC50.
Format: cell-based, human
Description: Peripheral blood mononuclear cells (PBMCs) were isolated from human blood containing the anti-coagulant EDTA (2.5 mM) by centrifugation over a FICOLL® gradient. PBMCs (250000 cells/well) were cultured in assay media (RPMI with 10% heat inactivated FCS) with compounds for 30 minutes at 37° C. in a 5% CO2 incubator. Following pretreatment with compounds, cells were stimulated for 5 hours with 10 μg/ml lipoteichoic acid (Invivogen, San Diego, Calif.), a TLR2 agonist. At the end of the culture, plates were centrifuged at 1800 rpm for 10 minutes to pellet the cells. Supernatants were harvested and analyzed for IL-6 levels by ELISA (BD Biosciences, San Jose, Calif.). Inhibition was calculated as either an IC50 or EC50. EC50 determinations are indicated with an asterisk.

`CC(C)(O)[C@H](F)CNC(=O)c1cnc(Nc2ccc3ncsc3c2)cc1NC1CCC(O)C1` (some centres unmarked) [Example 37] was tested. Which IC50 did it give?
Its IC50 is 297 nM.

For `CC(CO)Nc1cc(Nc2ccc3ncsc3c2)ncc1C(=O)NC[C@@H](F)C(C)(C)O` (some centres unmarked) [Example 39], which IC50 is on record?
The IC50 was 503 nM.

Which IC50 does the source give for `CC(C)Nc1cc(Nc2ccc3nsnc3c2)ncc1C(=O)NC[C@@H](F)C(C)(C)O` [Example 41] here?
Its IC50 is 318 nM.

How did the IC50 turn out when `CC(C)(O)[C@H](F)CNC(=O)c1cnc(Nc2ccc3ncsc3c2)cc1NC1CC1` [Example 42] was run?
The IC50 was 228 nM.

For `CC(C)Nc1cc(Nc2ccc3nonc3c2)ncc1C(=O)NC[C@@H](F)C(C)(C)O` [Example 45], which IC50 is on record?
The IC50 was 887 nM.

With `CC(C)Nc1cc(Nc2ccc3ncncc3c2)ncc1C(=O)NC[C@@H](F)C(C)(C)O` [Example 48] as the molecule, how does the IC50 read?
Its IC50 is 511 nM.

For `CC(C)(O)[C@H](F)CNC(=O)c1cnc(Nc2ccc3ncsc3c2)cc1N[C@@H](c1ccccc1)[C@H](O)CO` [Example 49], which IC50 is on record?
Its IC50 is 444 nM.

With `CC1(O)CCC(Nc2cc(Nc3ccc4ncsc4c3)ncc2C(=O)NC[C@@H](F)C(C)(C)O)C1` (some centres unmarked) [Example 50] as the molecule, how does the IC50 read?
The IC50 was 571 nM.

How did the IC50 turn out when `CC(C)(O)[C@H](F)CNC(=O)c1cnc(Nc2ccc3ncsc3c2)cc1Nc1ccc(OC(F)F)cc1` [Example 51] was run?
The IC50 was 334 nM.

Which IC50 does the source give for `CC(C)(O)[C@H](F)CNC(=O)c1cnc(Nc2ccc3ncsc3c2)cc1NC1CCOCC1` [Example 52] here?
The IC50 was 116 nM.

`CC(C)(O)[C@H](F)CNC(=O)c1cnc(Nc2ccc3ncsc3c2)cc1NC1CCCOC1` (some centres unmarked) [Example 53] was tested. Which IC50 did it give?
The IC50 was 230 nM.

For `CC(C)Nc1cc(Nc2ccc3nccnc3c2)ncc1C(=O)NC[C@@H](F)C(C)(C)O` [Example 55], which IC50 is on record?
Its IC50 is 349 nM.

How did the IC50 turn out when `CC(C)(O)[C@H](F)CNC(=O)c1cnc(Nc2ccc3ncsc3c2)cc1Nc1cccc(CO)c1` [Example 57] was run?
Its IC50 is 314 nM.

For `CC(C)(O)[C@H](F)CNC(=O)c1cnc(Nc2ccc3ncccc3c2)cc1NC1CC1` [Example 58], which IC50 is on record?
Its IC50 is 545 nM.

With `CC(C)(O)[C@H](F)CNC(=O)c1cnc(Nc2ccc3ncsc3c2)cc1Nc1cccc(CCO)c1` [Example 59] as the molecule, how does the IC50 read?
The IC50 was 99 nM.

`CC(C)(O)[C@H](F)CNC(=O)c1cnc(Nc2ccc3ncsc3c2)cc1N[C@H]1CC[C@H](N)CC1` [Example 61] was tested. Which IC50 did it give?
The IC50 was 257 nM.

With `CC(C)(O)[C@H](F)CNC(=O)c1cnc(Nc2ccc3ncsc3c2)cc1N[C@H](CO)c1ccccc1` [Example 63] as the molecule, how does the IC50 read?
Its IC50 is 632 nM.

With `CC(C)(O)C1CC(Nc2cc(Nc3ccc4ncsc4c3)ncc2C(=O)NC[C@@H](F)C(C)(C)O)C1` (some centres unmarked) [Example 64] as the molecule, how does the IC50 read?
The IC50 was 440 nM.

How did the IC50 turn out when `CC(C)(O)[C@H](F)CNC(=O)c1cnc(Nc2ccc3ncsc3c2)cc1N[C@@H](c1cc(F)cc(F)c1)[C@H](O)CO` [Example 65] was run?
Its IC50 is 170 nM.

`CC(C)(O)[C@H](F)CNC(=O)c1cnc(Nc2ccc3ncsc3c2)cc1NC1CC(CO)C1` (some centres unmarked) [Example 69] was tested. Which IC50 did it give?
Its IC50 is 365 nM.

How did the IC50 turn out when `CCOC(=O)C1CC(Nc2cc(Nc3ccc4ncsc4c3)ncc2C(=O)NC[C@@H](F)C(C)(C)O)C1` (some centres unmarked) [Example 70] was run?
Its IC50 is 530 nM.

Which IC50 does the source give for `CC(C)(O)[C@H](F)CNC(=O)c1cnc(Nc2ccc3nccnc3c2)cc1NC1CCCOC1` (some centres unmarked) [Example 71] here?
Its IC50 is 415 nM.

Which IC50 does the source give for `CC(C)(O)[C@H](F)CNC(=O)c1cnc(Nc2ccc3ncncc3c2)cc1NC1CCC1` [Example 73] here?
The IC50 was 327 nM.

Same assay, conditions: human PBMCs, 10 μg/ml lipoteichoic acid for 5 hours, IL-6 by ELISA; value without asterisk; read-out: Cell IC50

With `CC(C)(O)[C@H](F)CNC(=O)c1cnc(Nc2ccc3ncsc3c2)cc1NC1CCC(O)C1` (some centres unmarked) [Example 38] as the molecule, how does the IC50 read?
Its IC50 is 426 nM.

`CC(C)(O)[C@H](F)CNC(=O)c1cnc(Nc2ccc3ncsc3c2)cc1NC1CCCOC1` (some centres unmarked) [Example 54] was tested. Which IC50 did it give?
The IC50 was 258 nM.

Which IC50 does the source give for `CC(C)(O)[C@H](F)CNC(=O)c1cnc(Nc2ccc3ncsc3c2)cc1N[C@H]1CCC(CCO)C1` (some centres unmarked) [Example 66] here?
Its IC50 is 58 nM.

With `CC(C)(O)[C@H](F)CNC(=O)c1cnc(Nc2ccc3ncsc3c2)cc1N[C@H]1CCC(CCO)C1` (some centres unmarked) [Example 67] as the molecule, how does the IC50 read?
Its IC50 is 248 nM.

How did the IC50 turn out when `CC(C)(O)[C@H](F)CNC(=O)c1cnc(Nc2ccc3ncsc3c2)cc1N[C@H]1CCC(CCO)C1` (some centres unmarked) [Example 68] was run?
The IC50 was 231 nM.
